Source: PubChem BioAssay AID1919008 (Molecular Pharmacology Branch, DTP, NCI, 2023)

Test system: DMS-114 complex spheroids with HUVEC/MSC, growth % test/control
Experiment: Anticancer human tumor DMS-114 cell line growth inhibition [AhR];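 further: spheroids exposed to agents for 7 days before readout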;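 on viability, T/C: 100% = DMSO vehicle control wells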
Conditions: for IC50: curve of first compound; for viability, T/C: stronger effect = lower value
In short: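 Complex tumor spheroids co-cultured with HUVEC and human MSC stroma; AhR antagonists tested in combination with standard-of-care and investigational agents. Top concentration at or near clinical Cmax (else 10 microM), half-log dilutions; growth expressed as percent test/control.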

[1] = second compound 0.1 µM, first compound 0.00949 µM
[2] = second compound 0.1 µM, first compound 0.03 µM
[3] = second compound 0.1 µM, first compound 0.0949 µM
[4] = second compound 0.1 µM, first compound 0.3 µM
[5] = second compound 0.1 µM, first compound 0.949 µM
[6] = second compound 0.1 µM, first compound 3 µM
[7] = second compound 0.316 µM, first compound 0.00949 µM
[8] = second compound 0.316 µM, first compound 0.03 µM
[9] = second compound 0.316 µM, first compound 0.0949 µM
[10] = second compound 0.316 µM, first compound 0.3 µM
[11] = second compound 0.316 µM, first compound 0.949 µM
[12] = second compound 0.316 µM, first compound 3 µM
[13] = second compound 1 µM, first compound 0.00949 µM
[14] = second compound 1 µM, first compound 0.03 µM
[15] = second compound 1 µM, first compound 0.0949 µM
[16] = second compound 1 µM, first compound 0.3 µM
[17] = second compound 1 µM, first compound 0.949 µM
[18] = second compound 1 µM, first compound 3 µM
[19] = second compound 3.16 µM, first compound 0.00949 µM
[20] = second compound 3.16 µM, first compound 0.03 µM
[21] = second compound 3.16 µM, first compound 0.0949 µM
[22] = second compound 3.16 µM, first compound 0.3 µM
[23] = second compound 3.16 µM, first compound 0.949 µM
[24] = second compound 3.16 µM, first compound 3 µM
[25] = second compound 10 µM, first compound 0.00949 µM
[26] = second compound 10 µM, first compound 0.03 µM
[27] = second compound 10 µM, first compound 0.0949 µM
[28] = second compound 10 µM, first compound 0.3 µM
[29] = second compound 10 µM, first compound 0.949 µM
[30] = second compound 10 µM, first compound 3 µM

CC1COCCN1c1cc(C2(S(C)(=N)=O)CC2)nc(-c2ccnc3[nH]ccc23)n1 (stereo not given) + Cc1ccccc1N=Nc1ccc(NC(=O)c2ccnn2C)c(C)c1
IC50 (second compound 0.1 µM): > 10000 nM | IC50 (second compound 0.316 µM): > 10000 nM | IC50 (second compound 1 µM): > 10000 nM | IC50 (second compound 3.16 µM): > 10000 nM | IC50 (second compound 10 µM): > 10000 nM | viability, T/C (second compound 0.1 µM, first compound 0.0316 µM): 107% | viability, T/C (second compound 0.1 µM, first compound 0.1 µM): 100% | viability, T/C (second compound 0.1 µM, first compound 0.316 µM): 104% | viability, T/C (second compound 0.1 µM, first compound 1 µM): 109% | viability, T/C (second compound 0.1 µM, first compound 3.16 µM): 106% | viability, T/C (second compound 0.1 µM, first compound 10 µM): 77.6% | viability, T/C (second compound 0.316 µM, first compound 0.0316 µM): 102% | viability, T/C (second compound 0.316 µM, first compound 0.1 µM): 98.1% | viability, T/C (second compound 0.316 µM, first compound 0.316 µM): 103% | viability, T/C (second compound 0.316 µM, first compound 1 µM): 103% | viability, T/C (second compound 0.316 µM, first compound 3.16 µM): 92.5% | viability, T/C (second compound 0.316 µM, first compound 10 µM): 74.1% | viability, T/C (second compound 1 µM, first compound 0.0316 µM): 95.5% | viability, T/C (second compound 1 µM, first compound 0.1 µM): 94.5% | viability, T/C (second compound 1 µM, first compound 0.316 µM): 90.6% | viability, T/C (second compound 1 µM, first compound 1 µM): 102% | viability, T/C (second compound 1 µM, first compound 3.16 µM): 102% | viability, T/C (second compound 1 µM, first compound 10 µM): 71.5% | viability, T/C (second compound 3.16 µM, first compound 0.0316 µM): 93.3% | viability, T/C (second compound 3.16 µM, first compound 0.1 µM): 90.5% | viability, T/C (second compound 3.16 µM, first compound 0.316 µM): 99.3% | viability, T/C (second compound 3.16 µM, first compound 1 µM): 95.4% | viability, T/C (second compound 3.16 µM, first compound 3.16 µM): 94.2% | viability, T/C (second compound 3.16 µM, first compound 10 µM): 68% | viability, T/C (second compound 10 µM, first compound 0.0316 µM): 95.7% | viability, T/C (second compound 10 µM, first compound 0.1 µM): 90.7% | viability, T/C (second compound 10 µM, first compound 0.316 µM): 96.2% | viability, T/C (second compound 10 µM, first compound 1 µM): 89.6% | viability, T/C (second compound 10 µM, first compound 3.16 µM): 86.1% | viability, T/C (second compound 10 µM, first compound 10 µM): 63.1%

CCN(c1cc(-c2ccc(CN3CCOCC3)cc2)cc(C(=O)NCc2c(C)cc(C)[nH]c2=O)c1C)C1CCOCC1 + Cc1ccccc1N=Nc1ccc(NC(=O)c2ccnn2C)c(C)c1
IC50 (second compound 0.1 µM): > 3000 nM | IC50 (second compound 0.316 µM): > 3000 nM | IC50 (second compound 1 µM): > 3000 nM | IC50 (second compound 3.16 µM): > 3000 nM | IC50 (second compound 10 µM): > 3000 nM | viability, T/C [1]: 97.5% | viability, T/C [2]: 105% | viability, T/C [3]: 111% | viability, T/C [4]: 114% | viability, T/C [5]: 101% | viability, T/C [6]: 102% | viability, T/C [7]: 105% | viability, T/C [8]: 101% | viability, T/C [9]: 104% | viability, T/C [10]: 113% | viability, T/C [11]: 108% | viability, T/C [12]: 100% | viability, T/C [13]: 108% | viability, T/C [14]: 101% | viability, T/C [15]: 110% | viability, T/C [16]: 110% | viability, T/C [17]: 112% | viability, T/C [18]: 98.8% | viability, T/C [19]: 108% | viability, T/C [20]: 104% | viability, T/C [21]: 110% | viability, T/C [22]: 102% | viability, T/C [23]: 107% | viability, T/C [24]: 105% | viability, T/C [25]: 106% | viability, T/C [26]: 104% | viability, T/C [27]: 102% | viability, T/C [28]: 108% | viability, T/C [29]: 103% | viability, T/C [30]: 102%

Nc1ncn(C2CC(O)C(CO)S2)c(=O)n1 (stereo not given) + Cc1ccccc1N=Nc1ccc(NC(=O)c2ccnn2C)c(C)c1
IC50 (second compound 0.1 µM): > 300 nM | IC50 (second compound 0.316 µM): > 300 nM | IC50 (second compound 1 µM): > 300 nM | IC50 (second compound 3.16 µM): > 300 nM | IC50 (second compound 10 µM): > 300 nM | viability, T/C (second compound 0.1 µM, first compound 0.000949 µM): 94.1% | viability, T/C (second compound 0.1 µM, first compound 0.003 µM): 96.7% | viability, T/C [1]: 106% | viability, T/C [2]: 101% | viability, T/C [3]: 98.6% | viability, T/C [4]: 88.6% | viability, T/C (second compound 0.316 µM, first compound 0.000949 µM): 94.9% | viability, T/C (second compound 0.316 µM, first compound 0.003 µM): 96.3% | viability, T/C [7]: 103% | viability, T/C [8]: 105% | viability, T/C [9]: 111% | viability, T/C [10]: 95.5% | viability, T/C (second compound 1 µM, first compound 0.000949 µM): 101% | viability, T/C (second compound 1 µM, first compound 0.003 µM): 102% | viability, T/C [13]: 99.2% | viability, T/C [14]: 105% | viability, T/C [15]: 117% | viability, T/C [16]: 98.9% | viability, T/C (second compound 3.16 µM, first compound 0.000949 µM): 113% | viability, T/C (second compound 3.16 µM, first compound 0.003 µM): 93.4% | viability, T/C [19]: 96.9% | viability, T/C [20]: 105% | viability, T/C [21]: 91.7% | viability, T/C [22]: 91.3% | viability, T/C (second compound 10 µM, first compound 0.000949 µM): 99.4% | viability, T/C (second compound 10 µM, first compound 0.003 µM): 97.3% | viability, T/C [25]: 92.3% | viability, T/C [26]: 94.3% | viability, T/C [27]: 91.7% | viability, T/C [28]: 74.7%

O=C(C=Cn1cnc(-c2cc(C(F)(F)F)cc(C(F)(F)F)c2)n1)NNc1cnccn1 + Cc1ccccc1N=Nc1ccc(NC(=O)c2ccnn2C)c(C)c1
IC50 (second compound 0.1 µM): 827 nM | IC50 (second compound 0.316 µM): 806 nM | IC50 (second compound 1 µM): 906 nM | IC50 (second compound 3.16 µM): 877 nM | IC50 (second compound 10 µM): 987 nM | viability, T/C [1]: 111% | viability, T/C [2]: 114% | viability, T/C [3]: 124% | viability, T/C [4]: 93.4% | viability, T/C [5]: 45% | viability, T/C [6]: 18.2% | viability, T/C [7]: 95.8% | viability, T/C [8]: 125% | viability, T/C [9]: 127% | viability, T/C [10]: 89.1% | viability, T/C [11]: 45.2% | viability, T/C [12]: 17.4% | viability, T/C [13]: 100% | viability, T/C [14]: 124% | viability, T/C [15]: 144% | viability, T/C [16]: 91.6% | viability, T/C [17]: 51.8% | viability, T/C [18]: 20.6% | viability, T/C [19]: 99.7% | viability, T/C [20]: 110% | viability, T/C [21]: 124% | viability, T/C [22]: 88% | viability, T/C [23]: 48.9% | viability, T/C [24]: 21.9% | viability, T/C [25]: 98.5% | viability, T/C [26]: 91.5% | viability, T/C [27]: 95.5% | viability, T/C [28]: 75.6% | viability, T/C [29]: 51.5% | viability, T/C [30]: 30.4%
